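Assay format: 96-well plates, 48-hour exposure. GI50 is the concentration that inhibits growth by half.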 Active and inactive are the calls of the source. No stated cut-off is given here; in the data, active = GI50 up to about 1.1 µM and inactive = higher.

Four compounds from ChEMBL document CHEMBL1201862, “PubChem BioAssay data set” (2004) can be followed below.

What all share (assay): DTP human tumour cell line panel, 48 h
In test [1] the test system is 786-0.
The subject of test [2] is CCRF-CEM.
The test system of test [3] is COLO 205.
The test system of test [4] is HCT-15.
For test [5], the system named is HL-60.
Test [6] deals with HOP-62.
In test [7] the test system is K562.
Test [8] deals with MDA-MB-435.
For test [9], the system named is Malme-3M.
Test [10] deals with NCI-H522.
For test [11], the system named is NCI/ADR-RES.
Test [12] relates to RPMI-8226.
Test [13] concerns RXF 393.
The test system of test [14] is SF-539.
Test [15] relates to SK-MEL-28.
Test [16] concerns SK-OV-3.
Test [17] deals with SR.
Test [18] deals with TK-10.
Test [19] relates to UACC-257.
Test [20] deals with UACC-62.

As usually defined, the GI50 is the concentration giving 50% growth inhibition. On to `O=c1oc2ccccc2cc1-c1ccc([N+](=O)[O-])cc1`, for which the GI50 was 9.29 µM (inactive) in test [1]; > 100 µM (inactive) in test [2]; > 100 µM (inactive) in test [3]; more than 100 µM in [4]; > 100 µM (inactive) in test [5]; > 100 µM (inactive) in test [6]. Also, the GI50 in test [7] was > 100 µM (inactive); in [8], > 100 µM (inactive); in [9] it was > 100 µM (inactive); in test [10], 56.1 µM (inactive); in test [11], > 100 µM (inactive); in test [12], > 100 µM (inactive). For the same compound, the GI50 in [13] is > 100 µM (inactive); in test [14] it was 17.9 µM (inactive); in test [15], > 100 µM (inactive); in test [16] it was 65.3 µM (inactive); in [17], 57.9 µM (inactive); in test [18], > 100 µM (inactive). Besides, the GI50 is > 100 µM (inactive) in [19] and 89.5 µM (inactive) in [20].

For the compound `Nc1ccn(C2OC(CO)C(O)C2O)c(=O)n1` (stereo not given), the GI50 was 0.514 µM (active) in test [1]; 0.0527 µM (active) in test [2]; 139 µM (inactive) in test [3]; 73.5 µM in test [4]; 0.203 µM (active) in [5]; 0.213 µM (active) in test [6]. The GI50 is 14.6 µM (inactive) in [7]; 35.4 µM (inactive) in [8]; 13.8 µM (inactive) in test [9]; 22.6 µM (inactive) in test [10]; 1.16 µM (inactive) in test [11]; 337 µM (inactive) in test [12]. The GI50 in [13] was 191 µM (inactive); in [14], 30.8 µM (inactive); in [15] it was 68.2 µM (inactive); in test [16] it was 198 µM (inactive); in [17] it was 0.23 µM (active); in test [18], 467 µM (inactive). The GI50 in [19] was 120 µM (inactive); in test [20], 1.08 µM (active).

Take `N#CC(/N=N/c1ccc(Cl)cc1)c1nc2ccccc2o1` (stereo not given): the GI50 in test [1] is 62.2 µM (inactive); in [2], 21.1 µM (inactive); in test [3], 22.3 µM (inactive); in [4], more than 100 µM; in [5], 33.7 µM (inactive); in test [6], 38.3 µM (inactive). Besides, the GI50 in [7] is 15.5 µM (inactive); in test [8], > 100 µM (inactive); in [9] it was 34.6 µM (inactive); in test [10], 10.6 µM (inactive); in test [11], > 100 µM (inactive); in [12] it was 15.7 µM (inactive). Further, the GI50 in test [13] was 37.6 µM (inactive); in test [14], 24.6 µM (inactive); in [15], > 100 µM (inactive); in test [16], 32.7 µM (inactive); in test [17] it was 43.7 µM (inactive); in test [18], 56.6 µM (inactive). Besides, the GI50 in [19] is > 100 µM (inactive); in test [20], 20.6 µM (inactive).

Consider `N#C/C(=C\c1ccc(F)cc1)c1nc(-c2cc3ccccc3oc2=O)cs1`, for which the GI50 in test [1] was 14.8 µM (inactive); in test [2], > 100 µM (inactive); in test [3], > 100 µM (inactive); in test [4], 97.5 µM; in test [5], > 100 µM (inactive); in test [6], 8.28 µM (inactive). For the same compound, the GI50 is > 100 µM (inactive) in test [7]; 54.2 µM (inactive) in [8]; 15.7 µM (inactive) in test [9]; 17.9 µM (inactive) in [10]; 30.9 µM (inactive) in [11]; 87.9 µM (inactive) in test [12]. The GI50 was 18.6 µM (inactive) in test [13]; 18 µM (inactive) in test [14]; 44.7 µM (inactive) in [15]; 20.4 µM (inactive) in test [16]; > 100 µM (inactive) in [17]; 16.4 µM (inactive) in [18]. In addition, the GI50 in [19] was 20.7 µM (inactive); in test [20], 15 µM (inactive).
